Assay results as given in US12350270B2, “Antimalarial agents” (Merck Sharp & Dohme LLC, priority 2019, dated 2025).

Tested on: parasites (ring stage, in human red blood cell culture)
Experiment: Parasite LDH growth assay (antiparasite potency, Parasite Assay)
Assay type: cell-based, Plasmodium falciparum
Conditions: 0.7% rings, 2% haematocrit, 72 hours at 37° C., LDH readout of parasite growth
How it was run: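 Ring-stage parasites at 0.7% parasitemia and 2% haematocrit, in RPMI-Hepes/bicarbonate with 5% heat-inactivated human serum and 0.5% albumax, were added to compound-containing medium. Cultures grew 72 h at 37 °C in gassed humidified boxes. Plates were then frozen overnight at −80 °C, thawed 4 h, and growth was measured by LDH assay.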

SMILES | EC50 [nM]
CCC1(CC)CC(=O)N(C2c3cc(C(=O)N[C@@H]4c5ccccc5C[C@H]4O)ccc3OC2(C)C)C(=N)N1 (stereo partly drawn) [Example 127B, 3-(4,4-diethyl-2-imino-6-oxo-hexahydropyrimidin-1-yl)-N-[(1R,2R)-2-hydroxyindan-1-yl]-2,2-dimethyl-3H-benzofuran-5-carboxamide] | 222

Same assay, conditions: Plasmodium falciparum, Erythrocyte, 72 h, 0.7% rings, 2% haematocrit, 72 hours at 37° C., LDH readout of parasite growth

SMILES | EC50 [nM]
CC1(C)CC(=O)N([C@@H]2CC(C)(C)c3ccc(C(=O)N[C@H]4CC(C)(C)Oc5ccccc54)cc32)C(=N)N1 [Example 113, (3R)-N-[(4S)-2,2-dimethylchroman-4-yl]-3-(2-imino-4,4-dimethyl-6-oxo-hexahydropyrimidin-1-yl)-1,1-dimethyl-indane-5-carboxamide] | 16.4
CCC1(CC)CC(=O)N([C@@H]2CCCc3ccc(C(=O)N[C@@H]4c5ccccc5C[C@@]4(C)O)cc32)C(=N)N1 [Example 114, (4R)-4-(4,4-diethyl-2-imino-6-oxo-hexahydropyrimidin-1-yl)-N-[(1R,2R)-2-hydroxy-2-methyl-indan-1-yl]tetralin-6-carboxamide] | 1.8
CCC1(CC)CC(=O)N([C@@H]2C[C@@H](OC)c3ccc(C(=O)N[C@@H]4c5ccccc5C[C@H]4O)cc32)C(=N)N1 [Example 115, (1R,3R)-3-(4,4-diethyl-2-imino-6-oxo-hexahydropyrimidin-1-yl)-N-[(1R,2R)-2-hydroxyindan-1-yl]-1-methoxy-indane-5-carboxamide] | 3.6
CCC1(CC)CC(=O)N([C@H]2C[C@@H](OC)c3ccc(C(=O)N[C@@H]4c5ccccc5C[C@H]4O)cc32)C(=N)N1 [Example 116, (1R,3S)-3-(4,4-diethyl-2-imino-6-oxo-hexahydropyrimidin-1-yl)-N-[(1R,2R)-2-hydroxyindan-1-yl]-1-methoxy-indane-5-carboxamide] | 210
CCC1(CC)CC(=O)N([C@@H]2C[C@H](OC)c3ccc(C(=O)N[C@@H]4c5ccccc5C[C@H]4O)cc32)C(=N)N1 [Example 117, (1S,3R)-3-(4,4-diethyl-2-imino-6-oxo-hexahydropyrimidin-1-yl)-N-[(1R,2R)-2-hydroxyindan-1-yl]-1-methoxy-indane-5-carboxamide] | 2.5
CCC1(CC)CC(=O)N([C@H]2c3cc(C(=O)N[C@@H]4c5ccccc5C[C@H]4O)ccc3OC[C@H]2C)C(=N)N1 [Example 118, (3S,4R)-4-(4,4-diethyl-2-imino-6-oxo-hexahydropyrimidin-1-yl)-N-[(1R,2R)-2-hydroxyindan-1-yl]-3-methyl-chromane-6-carboxamide] | 0.9
CCC1(CC)CC(=O)N([C@@H]2CCOc3ccc(C(=O)NC4CCCOc5ccccc54)cc32)C(=N)N1 (stereo partly drawn) [Example 119, (4R)-4-(4,4-diethyl-2-imino-6-oxo-hexahydropyrimidin-1-yl)-N-(2,3,4,5-tetrahydro-1-benzoxepin-5-yl)chromane-6-carboxamide] | 2.8
CCC1(CC)CC(=O)N([C@H]2c3cc(C(=O)N[C@@H]4c5ccccc5C[C@H]4O)ccc3OC[C@@H]2C)C(=N)N1 [Example 120, (3R,4R)-4-(4,4-diethyl-2-imino-6-oxo-hexahydropyrimidin-1-yl)-N-[(1R,2R)-2-hydroxyindan-1-yl]-3-methyl-chromane-6-carboxamide] | 0.8
CC[C@]1(C)CC(=O)N([C@@H]2CCc3ccc(C(=O)N[C@@H]4c5ccccc5OC(C)(C)[C@H]4O)cc32)C(=N)N1 [Example 121, (3R)-3-[(4R)-4-ethyl-2-imino-4-methyl-6-oxo-hexahydropyrimidin-1-yl]-N-[(3S,4R)-3-hydroxy-2,2-dimethyl-chroman-4-yl]indane-5-carboxamide] | 0.6
CCC1(CC)CC(=O)N([C@@H]2CCc3ccc(C(=O)N[C@@H]4c5ccccc5OC[C@]4(C)O)cc32)C(=N)N1 [Example 122, (3R)-3-(4,4-diethyl-2-imino-6-oxo-hexahydropyrimidin-1-yl)-N-[(3R,4R)-3-hydroxy-3-methyl-chroman-4-yl]indane-5-carboxamide] | 3.9
CCC1(CC)CC(=O)N([C@@H]2CCc3ccc(C(=O)N[C@@H]4c5ccccc5OC[C@@]4(C)O)cc32)C(=N)N1 [Example 123, (3R)-3-(4,4-diethyl-2-imino-6-oxo-hexahydropyrimidin-1-yl)-N-[(3S,4R)-3-hydroxy-3-methyl-chroman-4-yl]indane-5-carboxamide] | 2.8
CC1(C)CC(=O)N([C@@H]2CC(C)(C)c3ccc(C(=O)N[C@@H]4c5ccccc5OC[C@@]4(C)O)cc32)C(=N)N1 [Example 124, (3R)-N-[(3S,4R)-3-hydroxy-3-methyl-chroman-4-yl]-3-(2-imino-4,4-dimethyl-6-oxo-hexahydropyrimidin-1-yl)-1,1-dimethyl-indane-5-carboxamide] | 57.5
CCC1(CC)CC(=O)N([C@@H]2CCCc3ccc(C(=O)N[C@@H]4c5ccccc5OC[C@H]4O)cc32)C(=N)N1 [Example 125, (4R)-4-(4,4-diethyl-2-imino-6-oxo-hexahydropyrimidin-1-yl)-N-[(3S,4R)-3-hydroxychroman-4-yl]tetralin-6-carboxamide] | 2.1
CC[C@]1(C)CC(=O)N([C@H]2c3cc(C(=O)N[C@@H]4c5ccccc5C[C@H]4O)ccc3OCC2(C)C)C(=N)N1 [Example 126, (4R)-4-[(4R)-4-ethyl-2-imino-4-methyl-6-oxo-hexahydropyrimidin-1-yl]-N-[(1R,2R)-2-hydroxyindan-1-yl]-3,3-dimethyl-chromane-6-carboxamide] | 14.3
CCC1(CC)CC(=O)N(C2c3cc(C(=O)N[C@@H]4c5ccccc5C[C@H]4O)ccc3OC2(C)C)C(=N)N1 (stereo partly drawn) [Example 127A, 3-(4,4-diethyl-2-imino-6-oxo-hexahydropyrimidin-1-yl)-N-[(1R,2R)-2-hydroxyindan-1-yl]-2,2-dimethyl-3H-benzofuran-5-carboxamide] | 202
CCC1(CC)CC(=O)N([C@@H]2C[C@@H](C)Oc3ccc(C(=O)N[C@@H]4c5ccccc5C[C@H]4O)cc32)C(=N)N1 [Example 128, (2R,4R)-4-(4,4-diethyl-2-imino-6-oxo-hexahydropyrimidin-1-yl)-N-[(1R,2R)-2-hydroxyindan-1-yl]-2-methyl-chromane-6-carboxamide] | 2.8
CC[C@]1(C)CC(=O)N([C@@H]2C[C@@H](C)Oc3ccc(C(=O)N[C@@H]4c5ccccc5C[C@@]4(C)O)cc32)C(=N)N1 [Example 129, (2R,4R)-4-[(4R)-4-ethyl-2-imino-4-methyl-6-oxo-hexahydropyrimidin-1-yl]-N-[(1R,2R)-2-hydroxy-2-methyl-indan-1-yl]-2-methyl-chromane-6-carboxamide] | 3.5
CC[C@]1(C)CC(=O)N([C@@H]2C[C@@H](C)c3ccc(C(=O)N[C@@H]4c5ccccc5OC[C@]4(C)O)cc32)C(=N)N1 [Example 130, (1R,3R)-3-[(4R)-4-ethyl-2-imino-4-methyl-6-oxo-hexahydropyrimidin-1-yl]-N-[(3R,4R)-3-hydroxy-3-methyl-chroman-4-yl]-1-methyl-indane-5-carboxamide] | 2.1
CC[C@]1(C)CC(=O)N([C@@H]2C[C@@H](C)c3ccc(C(=O)N[C@@H]4c5ccccc5OC[C@@]4(C)O)cc32)C(=N)N1 [Example 131, (1R,3R)-3-[(4R)-4-ethyl-2-imino-4-methyl-6-oxo-hexahydropyrimidin-1-yl]-N-[(3S,4R)-3-hydroxy-3-methyl-chroman-4-yl]-1-methyl-indane-5-carboxamide] | 2
CCC1(CC)CC(=O)N([C@@H]2CCCOc3ccc(C(=O)N[C@@H]4c5ccccc5C[C@H]4O)cc32)C(=N)N1 [Example 132, (5R)-5-(4,4-diethyl-2-imino-6-oxo-hexahydropyrimidin-1-yl)-N-[(1R,2R)-2-hydroxyindan-1-yl]-2,3,4,5-tetrahydro-1-benzoxepine-7-carboxamide] | 1.6
CC1(C)CC(=O)N(C2c3cc(C(=O)N[C@H]4CC(C)(C)Oc5ccccc54)ccc3OC2(C)C)C(=N)N1 (stereo partly drawn) [Example 134, N-[(4S)-2,2-dimethylchroman-4-yl]-3-(2-imino-4,4-dimethyl-6-oxo-hexahydropyrimidin-1-yl)-2,2-dimethyl-3H-benzofuran-5-carboxamide] | 8.8
C[C@@H]1Cc2ccc(C(=O)N[C@@H]3c4ccccc4OC(C)(C)[C@H]3O)cc2[C@@H]1N1C(=N)NC(C)(C)CC1=O [Example 135, (2R,3R)-N-[(3S,4R)-3-hydroxy-2,2-dimethyl-chroman-4-yl]-3-(2-imino-4,4-dimethyl-6-oxo-hexahydropyrimidin-1-yl)-2-methyl-indane-5-carboxamide] | 0.9
C[C@H]1Cc2ccc(C(=O)N[C@@H]3c4ccccc4OC(C)(C)[C@H]3O)cc2[C@@H]1N1C(=N)NC(C)(C)CC1=O [Example 136, (2S,3R)-N-[(3S,4R)-3-hydroxy-2,2-dimethyl-chroman-4-yl]-3-(2-imino-4,4-dimethyl-6-oxo-hexahydropyrimidin-1-yl)-2-methyl-indane-5-carboxamide] | 1.3
C[C@H]1Cc2ccc(C(=O)N[C@@H]3c4ccccc4OC(C)(C)[C@H]3O)cc2[C@H]1N1C(=N)NC(C)(C)CC1=O [Example 137, (2S,3S)-N-[(3S,4R)-3-hydroxy-2,2-dimethyl-chroman-4-yl]-3-(2-imino-4,4-dimethyl-6-oxo-hexahydropyrimidin-1-yl)-2-methyl-indane-5-carboxamide] | 239
C[C@@H]1C[C@@H](N2C(=N)NC(C)(C)CC2=O)c2cc(C(=O)N[C@@H]3c4ccccc4OC(C)(C)[C@H]3O)ccc21 [Example 138, (1R,3R)-N-[(3S,4R)-3-hydroxy-2,2-dimethyl-chroman-4-yl]-3-(2-imino-4,4-dimethyl-6-oxo-hexahydropyrimidin-1-yl)-1-methyl-indane-5-carboxamide] | 0.9
C[C@H]1C[C@H](N2C(=N)NC(C)(C)CC2=O)c2cc(C(=O)N[C@@H]3c4ccccc4OC(C)(C)[C@H]3O)ccc21 [Example 139, (1S,3S)-N-[(3S,4R)-3-hydroxy-2,2-dimethyl-chroman-4-yl]-3-(2-imino-4,4-dimethyl-6-oxo-hexahydropyrimidin-1-yl)-1-methyl-indane-5-carboxamide] | 180
